Reference: patent US20120083501A1, “COMPOUNDS FOR TREATING NEURODEGENERATIVE DISEASES” (priority 2010, published 2012)

Target: T1, BACE1 (Homo sapiens, UniProt P56817)
T1 construct: endogenous in cells; host or cells: HEK-293 cells stably transfected with wild type APP695
Assay: Cellular BACE1 Inhibition Assay (in vitro cellular Amyloidβ 1-40 production, HTRF immunoassay)
Assay type: cell-based
Details: inhibition of Amyloidβ 1-40 production; HEK-293 cells stably transfected with wild type APP695; 48 hours incubation; single assay or mean of multiple assays
Method: The BACE inhibition properties of the compounds of the invention may be determined by the following in vitro cellular Amyloidβ 1-40 production assay.
Inhibition of Amyloidβ 1-40 production was determined by incubating cells with compound for 48 hours and quantifying the level of Amyloidβ 1-40 using an homogeneous time-resolved fluorescence (“HTRF”) immunoassay.
Materials and Methods: HEK-293 cells stably transfected with a DNA construct containing the coding sequence for the wild type APP695 sequence were grown in Dulbecco's Modified Eagle Medium (“DMEM”) supplemented with 10% fetal bovine serum, penicillin/streptomycin and 150 μg/mL G418. Cells were plated in 96-well plates at 35,000 cells/well and allowed to attach for 8-12 hours. Media was changed to DMEM supplemented with 10% fetal bovine serum, penicillin/streptomycin 15 minutes prior to compound addition. Diluted compounds were then added at a final concentration of 0.5% DMSO. After 48 hours, 4 μL of media from each well was added to a corresponding well of a 384 well plate (Perkin Elmer Cat#6008280) containing the HTRF reagents. HTRF reagents were obtained from the CisBio Amyloidβ 1-40 peptide assay kit (Cat# 62B40PEC) and were prepared as follows anti-peptide β (1-40)-Cryptate and anti-peptide β (1-40)-XL655 were stored in 2 plate aliquots at −80° C. Diluent and Reconstitution buffer were stored at 4° C. Aliquots of the two antibodies were diluted 1:100 with Reconstitution buffer, and this mixture was diluted 1:2 with Diluent. 12 μL of the reagent mixture was added to the required wells of the 384 well assay plate. The assay plate was incubated at 4° C. for 17 hours and then analyzed for fluorescence at 665 and 620 nm. The reported IC50 below may be from a single assay or the mean of multiple assays.

T1 sequence (P56817 46-501): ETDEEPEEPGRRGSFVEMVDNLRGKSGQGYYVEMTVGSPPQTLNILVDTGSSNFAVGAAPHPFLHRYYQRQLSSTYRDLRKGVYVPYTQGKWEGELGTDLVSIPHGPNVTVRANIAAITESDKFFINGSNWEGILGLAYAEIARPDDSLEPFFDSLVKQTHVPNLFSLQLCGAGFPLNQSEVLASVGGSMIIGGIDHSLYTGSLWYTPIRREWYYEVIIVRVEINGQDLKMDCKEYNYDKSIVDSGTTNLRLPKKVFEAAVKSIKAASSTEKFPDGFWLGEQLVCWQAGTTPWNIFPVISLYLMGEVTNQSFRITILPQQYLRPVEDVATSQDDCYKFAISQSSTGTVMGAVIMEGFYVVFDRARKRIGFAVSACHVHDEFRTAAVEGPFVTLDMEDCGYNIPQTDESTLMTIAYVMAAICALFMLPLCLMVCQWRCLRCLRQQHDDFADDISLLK

IC50 [nM]	Compound
2	CN1C(=O)C2(N=C1N)c1cc(-c3cc(F)cc(Cl)c3)ccc1OC1CC(O)CCC12 (centres unmarked) [Example 1, 2-amino-7′-(3-chloro-5-fluorophenyl)-3′-hydroxy-1-methyl-1′,2′,3′,4′,4a′,9a′-hexahydro spiro[imidazole-4,9′-xanthen]-5(1H)-one]
1670	CN1CC[C@@H]2Oc3ccc(-c4cc(F)cc(Cl)c4)cc3C3(N=C(N)N(C)C3=O)[C@@H]2C1 (stereo partly drawn) [Example 34, (4aS,10aS)-2′-amino-8-(3-chloro-5-fluorophenyl)-1′,2-dimethyl-1,2,3,4,4a,10a-hexahydrospiro[chromeno[3,2-c]pyridine-10,4′-imidazol]-5′(1′H)-one]
13.2	C[C@H]1OCCC2Oc3ccc(-c4cncc(Cl)c4)cc3[C@]3(N=C(N)N(C)C3=O)[C@@H]21 (mixture of isomers) [Example 50, (1′R*,4R*,4a′R*,10a′R*)-2-amino-8′45-chloropyridin-3-yl)-1,1′-dimethyl-3′,4′,4a′,10a'-tetrahydro-1′H-spiro[imidazole-4,10′-pyrano[4,3-b]chromen]-5(1H)-one]
241	CN1C(=O)[C@]2(N=C1N)c1cc(-c3cccnc3F)ccc1O[C@H]1CCOCC12F (stereo partly drawn) [Example 99, (4R,4a′S)-2-amino-10a′-fluoro-8′-(2-fluoropyridin-3-yl)-1-methyl-3′,4′,4a′,10a′-tetrahydro-1′H-spiro[imidazole-4,10′-pyrano[4,3-b]chromen]-5(1H)-one]
1.8	CN1C(=O)[C@]2(N=C1N)c1cc(-c3cccnc3F)ccc1O[C@@]1(C)CCCO[C@@H]12 (relative stereo) [Example 64, (4S*,4a′S*,10a′R*)-2-amino-8′-(2-fluoropyridin-3-yl)-1,4a′-dimethyl-3′,4′,4a′,10a′-tetrahydro-2′H-spiro[imidazole-4,10′-pyrano[3,2-b]chromen]-5(1H)-one]
2.3	CN1C(=O)[C@]2(N=C1N)c1cc(-c3cncc(Cl)c3)ccc1O[C@]1(C)CCCO[C@H]12 (relative stereo) [Example 62, (4S*,4a′R*,10a′S*)-2-amino-8′-(5-chloropyridin-3-yl)-1,4a′-dimethyl-3′,4′,4a′,10a′-tetrahydro-2′H-spiro[imidazole-4,10′-pyrano[3,2-b]chromen]-5(1H)-one]
4.3	CN1C(=O)[C@]2(N=C1N)c1cc(-c3cccc(C#N)c3)ccc1O[C@]1(C)CCCO[C@H]12 (relative stereo) [Example 63, 3-((4S*,4a′R*,10a′S*)-2-amino-1,4a′-dimethyl-5-oxo-1,3′,4′,4a′,5,10a′-hexahydro-2′H-spiro[imidazole-4,10′-pyrano[3,2-b]chromen]-8′-yl)benzonitrile]
426	CN1C(=O)C2(N=C1N)c1cc(-c3cc(F)cc(Cl)c3)ccc1O[C@H]1CCCC[C@H]12 (relative stereo) [Example 32, cis 2-amino-7′-(3-chloro-5-fluorophenyl)-1-methyl-1′,2′,3′,4′,4a′,9a′-hexahydrospiro[imidazole-4,9′-xanthen]-5(1H)-one]
5.5	CN1C(=O)C2(N=C1N)c1cc(-c3cc(F)cc(Cl)c3)ccc1OC1CC(=O)CCC12 (centres unmarked) [Example 8, 2-amino-7′-(3-chloro-5-fluorophenyl)-1-methyl-1′,4′,4a′,9a′-tetrahydrospiro[imidazole-4,9′-xanthene]-3′,5(1H, 2′H)-dione]
35.9	CN1C(=O)C2(N=C1N)c1cc(-c3cc(F)cc(Cl)c3)ccc1OC1CC(C)(O)CCC12 (centres unmarked) [Example 7, 2-amino-7′-(3-chloro-5-fluorophenyl)-3′-hydroxy-1,3′-dimethyl-1′,2′,3′,4′,4a′,9a′-hexahydrospiro[imidazole-4,9′-xanthen]-5(1H)-one]
125	CN1C(=O)C2(N=C1N)c1cc(-c3cncnc3)ccc1OC1CC(F)(F)CCC12 (centres unmarked) [Example 18, 2-amino-3′,3′-difluoro-1-methyl-7′-(pyrimidin-5-yl)-1′,2′,3′,4′,4a′,9a′-hexahydrospiro[imidazole-4,9′-xanthen]-5(1H)-one]
8.6	CN1C(=O)C2(N=C1N)c1cc(-c3cncc(Cl)c3)ccc1O[C@H]1CCCC[C@@H]12 (relative stereo) [Example 15, trans 2-amino-7′-(5-chloropyridin-3-yl)-1-methyl-1′,2′,3′,4′,4a′,9a′-hexahydrospiro[imidazole-4,9′-xanthen]-5(1H)-one]
41.4	CN1C(=O)C2(N=C1N)c1cc(-c3cccnc3F)ccc1OC1CCC(F)(F)CC12 (centres unmarked) [Example 41, 2-amino-2′,2′-difluoro-7′-(2-fluoropyridin-3-yl)-1-methyl-1′,2′,3′,4′,4a′,9a′-hexahydrospiro[imidazole-4,9′-xanthen]-5(1H)-one]
172	CN1C(=O)C2(N=C1N)c1cc(-c3cc(F)cc(Cl)c3)ccc1OC1CC(F)(F)CCC12 (centres unmarked) [Example 20, 2-amino-7′-(3-chloro-5-fluorophenyl)-3′,3′-difluoro-1-methyl-1′,2′,3′,4′,4a′,9a′-hexahydrospiro[imidazole-4,9′-xanthen]-5(1H)-one]
11.4	CN1C(=O)C2(N=C1N)c1cc(-c3cc(F)cc(Cl)c3)ccc1OC1CCCC[C@@H]12 (some centres unmarked) [Example 12]
168	CN1C(=O)C2(N=C1N)c1cc(-c3cc(F)cc(Cl)c3)ccc1OC1CC3(CCC12)OCCO3 (centres unmarked) [Example 10, 2″-amino-7′-(3-chloro-5-fluorophenyl)-1″-methyl-1″,2′,4′,4′a,5″,9′a-hexahydro-1′H-dispiro[1,3-dioxolane-2,3′-xanthene-9′,4″-imidazole]-5″-one]
0.8	CN1C(=O)C2(N=C1N)c1cc(-c3cncc(Cl)c3)ccc1C[C@H]1CCOC[C@@H]12 (stereo partly drawn) [Example 69, (4aS,10aS)-2′-amino-8-(5-chloropyridin-3-yl)-1′-methyl-1,3,4,4a,5,10a-hexahydrospiro[benzo[g]isochromene-10,4′-imidazol]-5′(1′H)-one]
21.4	CN1C(=O)C2(N=C1N)c1cc(-c3cccnc3F)ccc1OC1CC(F)(F)CCC12 (centres unmarked) [Example 19, 2-amino-3′,3′-difluoro-7′-(2-fluoropyridin-3-yl)-1-methyl-1′,2′,3′,4′,4a′,9a′-hexahydrospiro[imidazole-4,9′-xanthen]-5(1H)-one]
22.3	COC1CC[C@@H]2[C@@H](C1)Oc1ccc(-c3cc(F)cc(Cl)c3)cc1C21N=C(N)N(C)C1=O (some centres unmarked) [Example 30, (4a′R,9a′S)-2-amino-7′-(3-chloro-5-fluorophenyl)-3′-methoxy-1-methyl-1′,2′,3′,4′,4a′,9a′-hexahydrospiro[imidazole-4,9′-xanthen]-5(1H)-one]
3.9	CN1C(=O)C2(N=C1N)c1cc(-c3cccnc3F)ccc1O[C@H]1CC(O)CC[C@@H]12 (some centres unmarked) [Example 96, (4a′S,9a′R)-2-amino-7′-(2-fluoropyridin-3-yl)-3′-hydroxy-1-methyl-1′,2′,3′,4′,4a′,9a′-hexahydrospiro[imidazole-4,9′-xanthen]-5(1H)-one]
36.2	CN1C(=O)C2(N=C1N)c1cc(-c3cncnc3)ccc1OC1CC(O)CCC12 (centres unmarked) [Example 6, 2-amino-3′-hydroxy-1-methyl-7′-(pyrimidin-5-yl)-1′,2′,3′,4′,4a′,9a′-hexahydrospiro[imidazole-4,9′-xanthen]-5(1H)-one]
1.5	CN1C(=O)C2(N=C1N)c1cc(-c3cccc(Cl)c3)ccc1OC1CC(O)CCC12 (centres unmarked) [Example 2, 2-amino-7′-(3-chlorophenyl)-3′-hydroxy-1-methyl-1′,2′,3′,4′,4a′,9a′-hexahydrospiro[imidazole-4,9′-xanthen]-5(1H)-one]
74.1	CN1C(=O)C2(N=C1N)c1cc(-c3cncc(Cl)c3)ccc1OC1CC(F)(F)CCC12 (centres unmarked) [Example 17, 2-amino-7′-(5-chloropyridin-3-yl)-3′,3′-difluoro-1-methyl-1′,2′,3′,4′,4a′,9a′-hexahydrospiro[imidazole-4,9′-xanthen]-5(1H)-one]
554	CN1C(=O)C2(N=C1N)c1cc(-c3cc(F)cc(Cl)c3)ccc1OC1CC(OCC3CC3)CCC12 (centres unmarked) [Example 29, 2-amino-7′-(3-chloro-5-fluorophenyl)-3′-(cyclopropylmethoxy)-1-methyl-1′,2′,3′,4′,4a′,9a′-hexahydrospiro[imidazole-4,9′-xanthen]-5(1H)-one]
4.6	CN1C(=O)[C@]2(N=C1N)c1cc(-c3cncc(C#N)c3)ccc1O[C@H]1CCCO[C@@]12C [Example 86, 5-((4S,4a′S,10a′R)-2-amino-1,10a′-dimethyl-5-oxo-1,3′,4′,4a′,5,10a′-hexahydro-2′H-spiro[imidazole-4,10′-pyrano[3,2-b]chromen]-8′-yl)nicotinonitrile]
221	CN1C(=O)C2(N=C1N)c1cc(-c3cccc(OC(F)F)c3)ccc1OC1CC(F)(F)CCC12 (centres unmarked) [Example 36, 2-amino-7′-(3-(difluoromethoxy)phenyl)-3′,3′-difluoro-1-methyl-1′,2′,3′,4′,4a′,9a′-hexahydrospiro[imidazole-4,9′-xanthen]-5(1H)-one]
